How the values were obtained:
[1] = Inhibition of crystal growth (KWI) of hydroxyapatite, KOH consumption at pH 7.4; details: 100 mg hydroxyapatite, pH 7.4, 2 hours
Experimental: In order to determine inhibition of crystal growth (KWI in %) by hydroxyapatite, a blind test was also first conducted. For this purpose, a reaction vessel with 400 ml of a 0.0008 molar solution of KH2PO4 and 45 ml of a 0.012 molar solution of CaCl2 was prepared. This solution was adjusted to a pH of 7.4 by titration with a 0.05 molar solution of KOH. After a stable pH value had been maintained for at least 30 minutes, 100 mg of hydroxyapatite powder (spec. surface area 60 m^2/g, Merck) was added. The pH value of the suspension was kept at a constant value of 7.4 by means of an automatic burette which can be used to add 0.05 molar KOH solution. The amount of 0.05 molar KOH solution consumed in order to stabilize the pH was registered with a recorder. The consumption of KOH solution (Ku) registered after 2 hours was equivalent to the formation of hydroxyapatite (growth of crystals in the suspension).
Inhibition of crystal growth by the active ingredient was calculated as follows: KWI (%)=(Ku−Kb)*100/Ku (%)

[2] = Reduction in apatite solubility (ALR), lactic acid consumption at pH 5; details: 0.5 g hydroxyapatite in 300 ml water, 37° C., pH 5, 2 hours
Experimental: In order to determine the reduction in apatite stability, a blind test was first conducted. For this purpose, a reaction vessel with 300 ml of desalinated water was temperature-controlled to 37° C., and 0.5 g of hydroxyapatite powder (spec. surface area 60 m^2/g, Merck) was suspended therein. The pH value of the suspension was kept at a constant value of 5 by means of an automatic burette used to add lactic acid. The amount of 0.1 molar lactic acid consumed in order to stabilize the pH was registered with a recorder.
The reduction in apatite solubility (ALR in %) caused by the active ingredient was calculated as follows: ALR (%)=(Lu−Lb)*100/Lu (%)

[3] = 30 mg active ingredient mixture
[4] = 150 mg active ingredient mixture

Row | SMILES | Crystal growth inhibition [%] ([1]; 5 mg active ingredient) | Crystal growth inhibition [%] ([1]; 6 mg active ingredient) | Apatite solubility [%] [2, 3] [%] | Apatite solubility [%] [2, 4] [%]
1 | COC(=O)C(C)O (centres unmarked) [Example V9, Methyl lactate] | 10 | 14 | 5 | 12
2 | CC1CCC(C(C)C)C2(C1)OCC(CO)O2 (centres unmarked) [Example V10, Menthone glyceryl acetal] | 9 | 17 | – | 13
3 | Cc1ccc(C(C)C)c(OCC(=O)N(Cc2cccs2)c2cc[nH]n2)c1 [Example V11, 2-(2-isopropyl-5-methylphenoxy)-N-(1H-pyrazol-3-yl)-N-(thiophen-2-yl)-methylacetamide] | 11 | 16 | 5 | 14

— patent publication US10492511B2, “Preparations” (Symrise AG, priority 2012, dated 2019)
